In ChEMBL document CHEMBL5725356, “Anti-fibrotic pyridinones” (2017):

Experiment: ET-1 Assay: Fibroblasts (primary human lung and dermal, HFL-1, 3T3 etc) are seeded in 96-well plates at ~15000 cells/well and serum starved for 0-48 hours. After media exchange, compounds serially diluted in DMSO are added to the cells. After a brief incubation of ~30 min, stimulants (TGFb, serum, LPA etc) are added followed by further incubation for 16-48 hours. Media is then harvested and stored frozen in plate format for later endothelin-1 (ET-1) determination by ELISA. Toxicity measurements are made using the ATPlite kit (Perkin-Elmer). ET-1 is quantified using an ELISA kit (R&D Systems). The amount of ET-1 produced in the assay wells are back-calculated using the ELISA standard. The ability of a compound to inhibit ET-1 production is typically analyzed by fitting dose-response curves to a 4-parameter logistic function to obtain an EC50 value.
Settings: HFL1

Structure (SMILES) | EC50
CCn1cc(-c2cn(-c3ccc(OC(F)(F)F)cc3)c(=O)c3c2ncn3CC)cn1 | < 50 µM
Cc1nc2c(=O)n(-c3ccc(OC(F)(F)F)cc3)cc(-c3cn[nH]c3)c2n1C | < 50 µM
COc1ccc(CN(C)c2cc(=O)n(-c3ccc(OC(F)(F)F)cc3)cc2-c2cnn(C)c2)cc1 | in the range around 125 µM
Cc1cc(=O)n(-c2ccc(OC(F)(F)F)cc2)cc1-c1cn[nH]c1 | < 50 µM
O=c1ccc(C(F)(F)F)cn1-c1cccc(F)c1 | > 200 µM
CC(C)Oc1ccc(-n2cc(-c3ccc(S(N)(=O)=O)cc3)ccc2=O)cc1 | > 200 µM
O=c1ccc(-c2ccc(F)cc2)cn1-c1ccccc1Cl | > 200 µM
O=C(NCc1ccccc1)Nc1cc(=O)n(-c2ccc(OC(F)(F)F)cc2)cc1-c1ccc(F)cc1 | > 200 µM
O=c1ccc(-c2cn[nH]c2)cn1-c1ccc(F)cc1 | in the range around 125 µM
O=c1c2nccnc2c(-c2cn[nH]c2)cn1-c1ccc(OC(F)(F)F)cc1 | < 50 µM
Cn1cc(-c2cn(-c3ccc(O)cc3)c(=O)cc2Oc2ccccc2)cn1 | > 200 µM
Cc1nc2ccn(-c3ccc(OC(F)(F)F)cc3)c(=O)c2s1 | > 200 µM
Cc1cc(=O)n(-c2cccc(OC(F)(F)F)c2)cc1-c1cnn(C)c1 | > 200 µM
O=c1c2[nH]cnc2c(-c2cn[nH]c2)cn1-c1ccc(OC(F)(F)F)cc1 | < 50 µM
CC(C)n1ccc2c(-c3cnn(C)c3)cn(-c3ccc(OC(F)(F)F)cc3)c(=O)c21 | < 50 µM
Cc1cc(=O)n(-c2ccc(OC(F)(F)F)cc2)cc1-c1ccc(Cl)c(Cl)c1 | in the range around 125 µM
Cn1cc(-c2cn(-c3ccc(OC(F)(F)F)cc3)c(=O)cc2NCc2ccccn2)cn1 | < 50 µM
Cc1cc(=O)n(-c2ccc(OC(F)(F)F)cc2)cc1-c1cccnc1 | > 200 µM
N#Cc1ccc(-n2cc(-c3cn[nH]c3)c3nccnc3c2=O)cc1 | > 200 µM
Cn1cc(-c2c[nH]c(=O)cc2NCc2ccccn2)cn1 | in the range around 125 µM
CC(=O)Nc1cccc(-n2cc(C(F)(F)F)ccc2=O)c1 | > 200 µM

Structure (SMILES) | EC50
O=c1c2nccnc2c(-c2cn[nH]c2)cn1-c1ccc(Cl)cc1 | > 200 µM
CCc1cc(=O)n(-c2ccc(OC(F)(F)F)cc2)cc1-c1ccc(F)cc1 | in the range around 125 µM
O=c1c2[nH]ccc2c(-c2ccc(F)cc2)cn1-c1ccc(OC(F)(F)F)cc1 | < 50 µM
O=c1ccc(Br)cn1-c1ccc(OC(F)(F)F)cc1 | > 200 µM
CCn1ccc2ccn(-c3ccc(OC(F)(F)F)cc3)c(=O)c21 | < 50 µM
Cn1cc(-c2cnc(=O)n(-c3ccc(OC(F)(F)F)cc3)c2)cn1 | > 200 µM
O=c1c2[nH]ccc2c(-c2cn[nH]c2)cn1-c1ccc(OC(F)(F)F)cc1 | < 50 µM
Cc1cc(=O)n(-c2ccc(Cl)cc2C)cc1-c1ccccc1 | in the range around 125 µM
CC(C)C(=O)Nc1cc(=O)n(-c2ccc(OC(F)(F)F)cc2)cc1-c1ccc(F)cc1 | > 200 µM
CCOc1ccc(-n2cc(-c3cnn(C)c3)c(NCc3ccc(C#N)cc3)cc2=O)c(C)c1 | < 50 µM
Cn1cc(-c2cn(-c3ccc(OC(F)(F)F)cc3)c(=O)cc2OCCN2CCCC2=O)cn1 | > 200 µM
COc1ccc(-n2cc(-c3cccc(Cl)c3)ccc2=O)cc1 | < 50 µM
O=c1ccc(C(F)(F)F)cn1-c1cncnc1 | > 200 µM
O=C1COCCN1CCOc1cc(=O)n(-c2ccc(OC(F)(F)F)cc2)cc1-c1ccc(F)cc1 | in the range around 125 µM
O=c1ccc(Br)cn1-c1cccc(F)c1 | > 200 µM
Cc1cc(=O)n(-c2ccc(OC(F)(F)F)cc2)cc1-c1ccc2c(c1)OCC(=O)N2 | in the range around 125 µM
CC(C)c1ccc(=O)n(-c2ccccc2)c1 | > 200 µM
Cc1cc(=O)n(-c2ccc(OC(F)(F)F)cc2)cc1-c1ccc2c(c1)OC(C)(C)O2 | > 200 µM
Cc1cc(=O)n(-c2ccccc2NC(N)=O)cc1-c1ccc(F)cc1 | < 50 µM
O=c1ccc(-c2cncnc2)cn1-c1ccc(F)cc1 | > 200 µM
Cn1cc(-c2cn(-c3ccc(OC(F)(F)F)cc3)c(=O)cc2OCCN2CCS(=O)(=O)CC2)cn1 | > 200 µM
